The values that follow are results of earlier work, collected in patent publication US5229007A (priority 1992, dated 1993).

One data set concerns insect. Conditions: in vivo.

Consider `C/C=C(\C)C(=O)O[C@H]1C[C@@H](OC(C)=O)[C@@]2(C(=O)OC)CO[C@H]3[C@@H](O)[C@@](C)([C@]45O[C@@]4(C)[C@H]4C[C@@H]5O[C@@H]5OC=C[C@@]54O)[C@H]4[C@]1(CO[C@]4(O)C(=O)OC)[C@@H]32` [azadirachtin], for which the “stability in alkaline solutions” value (alkaline solutions) was “degraded in alkaline solutions”. The “stability at elevated temperatures” value (elevated temperatures) is recorded as “decomposes at elevated temperatures”. In addition, the “insect growth regulator and feeding deterrent activity” value in the data set on insect is “potent insect growth regulator and feeding deterrent”.
